From patent US9801958B2, “Polymer nanoparticle composite and composition for MRI imaging including same” (THE UNIVERSITY OF TOKYO, priority 2013, dated 2017)

Columns and labels:
[1] = test system: Colon26 liver metastatic tumor; details: property in clinical practice; cited from earlier work
[2] = mouse, in vivo
Source text: Here, the maximum tolerant dose (MTD) of MnCaP for a mouse is about 1.5 mmol/kg. In this regard, the maximum tolerant dose (MTD) of MnCl2 is about 0.22 mmol/kg, which is about 1/7 the maximum tolerant dose (MTD) of MnCaP. Therefore, the polymer nanoparticle composite of the present invention that uses MnCaP is also extremely good for practical use in MRI contrast in terms of maximum tolerant dose (MTD).

[3] = Relaxivity measurement and T1-weighted imaging in solution, 1T MR; type: physicochemical; details: 0.1-0.5 mM, distilled water
Method: In order to measure the relaxivity of the produced MnCaP nanoparticle composite and compare the contrast effect with existing MnCl2 alone, a preclinical permanent magnet type 1T (Tesla) MR equipment (Icon™, Bruker-Biospin, Germany) was used to measure the relaxivity and acquire T1-weighted images for comparison. For the measurements, the MnCaP nanoparticle composite at a concentration of 0.1-0.5 mM and MnCl2 at the same concentration were used and measured in PCR sample tubes. Distilled water was used for dilution.
The relaxivity was measured using a proton volume coil (inner diameter 35 mm). As the contrast method, a rapid spin-echo technique adopting inversion pulse (Rapid Acquisition with Relaxation Enhancement, RARE) was employed. […]

CCOc1ccc(C[C@@H](CN(CCN(CC(=O)[O-])CC(=O)[O-])CC(=O)[O-])N(CC(=O)[O-])CC(=O)[O-])cc1.[Gd+3].[H+].[H+] [Gd-EOB-DTPA]
appearance of normal liver region (clinical contrast agent) [1]: in white | signal change in liver tumor region (clinical contrast agent) [1]: almost no change

[Cl][Mn][Cl] [MnCl2]
MTD of MnCl2 relative to MTD of MnCaP [2]: about 1/7 | maximum tolerant dose (MTD) [2]: about 0.22 mmol/kg | longitudinal relaxivity r1 [3]: 7.30 to 7.58 mM⁻¹ s⁻¹
